Test results reported in article PMC11232109, “Synthesis, anticancer evaluation of novel hybrid pyrazole-based chalcones, molecular docking, DNA fragmentation, and gene expression: in vitro studies” (RSC Advances, 2024).

Columns and labels:
Type in all cases: cell-based
[1] = tested on: MCF7 (human breast adenocarcinoma); assay: MTT assay, MCF7; conditions: Homo sapiens, MTT; for cytotoxicity at 100 µg/mL: at 100 μg ml^−1, 48 hours
Protocol: (§1) The percentage of the cell viability treated with the newly synthesized compounds was evaluated using MTT assay (3-(4,5-dimethylthiazol-2-yl)-2,5-diphenyl tetrazolium bromide). All the subsequent steps were done in a sterile Laminar flow class II biosafety cabinet (Baker, SG406INT, Sanford, ME, USA). DMEM was used as a suspension medium for breast cancer (MCF7), prostate cancer (PC3), and pancreatic cancer (PACA2), while normal cell line (BJ1) was suspended in DMEM-F12 medium, a 1% antibiotic-antimycotic mixture (10 000 U ml^−1 potassium penicillin, 10 000 μg ml^−1 streptomycin sulfate, and 25 μg ml^−1 amphotericin B), and 1% L-glutamine at 37 °C under 5% CO2.
(§2) Cells were cultured for 10 days and then seeded at a concentration of 10 × 10^4 cells per well in fresh complete growth medium in 96-well microtiter plastic plates at 37 °C for 24 hours under 5% CO2 using a water-jacketed carbon dioxide incubator (Sheldon, TC2323). Media were aspirated, serum-free fresh medium was added, and cells were incubated either alone (negative control) or with different concentrations of the synthesized chalcone derivatives to a final concentration of (100–50–25–12.5–6.25–3.125–0.78 and 1.56 μg ml^−1). After incubation for 48 hours, the medium was aspirated and 40 μl of MTT salt ([…]) was added to each well and incubated for another four hours at 37 °C under 5% CO2. To stop the reaction and dissolve the formed crystals, 200 μl of 10% sodium dodecyl sulfate (SDS) in deionized water was added to each well and incubated overnight at 37 °C.
(§3) The absorbance was then measured at 595 nm and a reference wavelength of 620 nm using a microplate multi-well reader (Bio-Rad Laboratories Inc., model 3350). Statistical significance was tested between the samples and the negative control (cells with vehicle) using an independent t-test using the SPSS 11 program. DMSO was the vehicle used for the dissolution of the synthesized chalcones, and its final concentration on the cells was less than 0.2%. The percentage of change in viability was calculated according to the formula: ((reading of extract/reading of negative control) − 1) × 100. A Probit analysis was carried out for the determination of IC50 using the SPSS 11 program.

[2] = MTT assay, normal cell line BJ1; conditions: human, BJ1 normal skin fibroblasts, at 100 μg ml^−1, 48 hours, read-out: (%) Mortality of BJ1
Protocol: as §1, §2, §3

[3] = tested on: PACA2 (pancreatic carcinoma); assay: MTT assay, PACA2; conditions: Homo sapiens, PaCa-2, 48 h, MTT, read-out: (%) Mortality of PACA2; for cytotoxicity at 100 µg/mL: at 100 μg ml^−1, 48 hours
Protocol: as §1, §2, §3

PC3 (prostatic cancer) = assay: MTT assay, PC3; conditions: Homo sapiens, 48 h, MTT, read-out: (%) Mortality of PC3; for cytotoxicity at 100 µg/mL: at 100 μg ml^−1, 48 hours
Protocol: as §1, §2, §3

[4] = tested on: BJ1 (normal skin fibroblasts); assay: MTT assay, normal cell line BJ1; conditions: Skin fibroblast, 48 hours
Protocol: as §1, §2, §3

[5] = MCF7, 48 h, read-out: (%) Mortality of MCF7

SMILES | cytotoxicity at 100 µg/mL [1, 5] [%] | IC50 ([1]; MCF7, 48 hours) [µM] | cytotoxicity at 48 h, 100 μg ml^−1 [2] [%] | cytotoxicity at 100 µg/mL [3] [%] | cytotoxicity at 100 µg/mL (PC3 (prostatic cancer)) [%] | cytotoxicity at 6.25 µg/mL ([1]; MCF7, 48 h, up to 6.25 μg ml^−1, 48 hours, read-out: (%) Mortality of MCF7) [%] | IC50 [4] [µM] | cytotoxicity at 6.25 µg/mL ([3]; up to 6.25 μg ml^−1, 48 hours) [%] | cytotoxicity at 6.25 µg/mL (PC3 (prostatic cancer); up to 6.25 μg ml^−1, 48 hours) [%]
Cc1c(C(=O)C=Cc2ccco2)c(-c2cccs2)nn1-c1ccc([N+](=O)[O-])cc1 [Compound 7a, 3-(Furan-2-yl)-1-(5-methyl-1-(4-nitrophenyl)-3-(thiophen-2-yl)-1H-pyrazol-4-yl)prop-2-en-1-one] | 63.5 ± 0.11 | 72.3 ± 0.34 | 11.2 ± 0.48 | 17.3 ± 0.13 | 3.8 ± 0.65 |  |  |  | 
Cc1c(C(=O)C=Cc2cccs2)c(-c2cccs2)nn1-c1ccc([N+](=O)[O-])cc1 [Compound 7b, 1-(5-Methyl-1-(4-nitrophenyl)-3-(thiophen-2-yl)-1H-pyrazol-4-yl)-3-(thiophen-2-yl)prop-2-en-1-one] | 45.3 ± 0.98 |  |  | 32.5 ± 0.74 | 4.2 ± 0.73 |  |  |  | 
Cc1c(C(=O)C=Cc2ccncc2)c(-c2cccs2)nn1-c1ccc([N+](=O)[O-])cc1 [Compound 7c, 1-(5-Methyl-1-(4-nitrophenyl)-3-(thiophen-2-yl)-1H-pyrazol-4-yl)-3-(pyridin-4-yl)prop-2-en-1-one] |  |  | 52.3 ± 0.76 |  |  | 100 | 86.2 ± 0.22 | 100 | 100
Cc1c(C(=O)C=Cc2nn(-c3ccccc3)cc2-c2ccccc2)c(-c2cccs2)nn1-c1ccc([N+](=O)[O-])cc1 [Compound 9a, 3-(1,4-Diphenyl-1H-pyrazol-3-yl)-1-(5-methyl-1-(4-nitrophenyl)-3-(thiophen-2-yl)-1H-pyrazol-4-yl)prop-2-en-1-one] | 42.3 ± 0.21 |  |  | 50.3 ± 0.42 | 4.5 ± 0.26 |  |  |  | 
Cc1ccc(-c2cn(-c3ccccc3)nc2C=CC(=O)c2c(-c3cccs3)nn(-c3ccc([N+](=O)[O-])cc3)c2C)cc1 [Compound 9b, 1-(5-Methyl-1-(4-nitrophenyl)-3-(thiophen-2-yl)-1H-pyrazol-4-yl)-3-(1-phenyl-4-(p-tolyl)-1H-pyrazol-3-yl)prop-2-en-1-one] | 44.5 ± 0.74 |  |  | 39.5 ± 0.91 | 27.2 ± 0.31 |  |  |  | 
COc1ccc(-c2cn(-c3ccccc3)nc2C=CC(=O)c2c(-c3cccs3)nn(-c3ccc([N+](=O)[O-])cc3)c2C)cc1 [Compound 9c, 3-(4-(4-Methoxyphenyl)-1-phenyl-1H-pyrazol-3-yl)-1-(5-methyl-1-(4-nitrophenyl)-3-(thiophen-2-yl)-1H-pyrazol-4-yl)prop-2-en-1-one] | 25.2 ± 0.41 |  |  | 19.8 ± 0.68 | 2.9 ± 0.57 |  |  |  | 
Cc1c(C(=O)C=Cc2nn(-c3ccccc3)cc2-c2ccc(Cl)cc2)c(-c2cccs2)nn1-c1ccc([N+](=O)[O-])cc1 [Compound 9d, 3-(4-(4-Chlorophenyl)-1-phenyl-1H-pyrazol-3-yl)-1-(5-methyl-1-(4-nitrophenyl)-3-(thiophen-2-yl)-1H-pyrazol-4-yl)prop-2-en-1-one] | 44.2 ± 0.33 |  |  | 54.5 ± 0.84 | 3.5 ± 0.92 |  |  |  | 
Cc1c(C(=O)C=Cc2nn(-c3ccccc3)cc2-c2cccs2)c(-c2cccs2)nn1-c1ccc([N+](=O)[O-])cc1 [Compound 9f, 1-(5-Methyl-1-(4-nitrophenyl)-3-(thiophen-2-yl)-1H-pyrazol-4-yl)-3-(1-phenyl-4-(thiophen-2-yl)-1H-pyrazol-3-yl)prop-2-en-1-one] | 80.4 ± 0.25 |  |  | 16.5 ± 0.35 | 4.5 ± 0.23 |  |  |  | 
